Values of other authors as cited in patent US8778869B2, “Tissue regeneration system” (Wisconsin Alumni Research Foundation, priority 2010, dated 2014).

B1: bone morphogenetic protein-2 (protein, listed as Homo sapiens)
chain: MVAGTRCLLALLLPQVLLGGAAGLVPELGRRKFAAASSGRPSSQPSDEVLSEFELRLLSMFGLKQRPTPSRDAVVPPYMLDLYRRHSGQPGSPAPDHRLERAASRANTVRSFHHEESLEELPETSGKTTRRFFFNLSSIPTEEFITSAELQVFREQMQDALGNNSSFHHRINIYEIIKPATANSKFPVTRLLDTRLVNQNASRWESFDVTPAVMRWTAQGHANHGFVVEVAHLEEKQGVSKRHVRISRSLHQDEHSWSQIRPLLVTFGHDGKGHPLHKREKRQAKHKQRKRLKSSCKRHPLYVDFSDVGWNDWIVAPPGYHAFYCHGECPFPLADHLNSTNHAIVQTLVNSVNSKIPKACCVPTELSAISMLYLDENEKVVLKNYQDMVVEGCGCR

| Molecule | concentration of optimal in vitro biological activity |
| --- | --- |
| fibroblast growth factor-2 [FGF-2] | approximately 1 nM |
| B1 | approximately 1 nM |
